Results on one compound are retold here after article PMC2902375 (Neuroreport, 2009).

This test has as its target CACNA1H (Homo sapiens, UniProt O95180). The experiment in a line: whole-cell voltage clamp, HEK-293. The test is classed as cell-based.

Sequence of CACNA1H (O95180 whole entry): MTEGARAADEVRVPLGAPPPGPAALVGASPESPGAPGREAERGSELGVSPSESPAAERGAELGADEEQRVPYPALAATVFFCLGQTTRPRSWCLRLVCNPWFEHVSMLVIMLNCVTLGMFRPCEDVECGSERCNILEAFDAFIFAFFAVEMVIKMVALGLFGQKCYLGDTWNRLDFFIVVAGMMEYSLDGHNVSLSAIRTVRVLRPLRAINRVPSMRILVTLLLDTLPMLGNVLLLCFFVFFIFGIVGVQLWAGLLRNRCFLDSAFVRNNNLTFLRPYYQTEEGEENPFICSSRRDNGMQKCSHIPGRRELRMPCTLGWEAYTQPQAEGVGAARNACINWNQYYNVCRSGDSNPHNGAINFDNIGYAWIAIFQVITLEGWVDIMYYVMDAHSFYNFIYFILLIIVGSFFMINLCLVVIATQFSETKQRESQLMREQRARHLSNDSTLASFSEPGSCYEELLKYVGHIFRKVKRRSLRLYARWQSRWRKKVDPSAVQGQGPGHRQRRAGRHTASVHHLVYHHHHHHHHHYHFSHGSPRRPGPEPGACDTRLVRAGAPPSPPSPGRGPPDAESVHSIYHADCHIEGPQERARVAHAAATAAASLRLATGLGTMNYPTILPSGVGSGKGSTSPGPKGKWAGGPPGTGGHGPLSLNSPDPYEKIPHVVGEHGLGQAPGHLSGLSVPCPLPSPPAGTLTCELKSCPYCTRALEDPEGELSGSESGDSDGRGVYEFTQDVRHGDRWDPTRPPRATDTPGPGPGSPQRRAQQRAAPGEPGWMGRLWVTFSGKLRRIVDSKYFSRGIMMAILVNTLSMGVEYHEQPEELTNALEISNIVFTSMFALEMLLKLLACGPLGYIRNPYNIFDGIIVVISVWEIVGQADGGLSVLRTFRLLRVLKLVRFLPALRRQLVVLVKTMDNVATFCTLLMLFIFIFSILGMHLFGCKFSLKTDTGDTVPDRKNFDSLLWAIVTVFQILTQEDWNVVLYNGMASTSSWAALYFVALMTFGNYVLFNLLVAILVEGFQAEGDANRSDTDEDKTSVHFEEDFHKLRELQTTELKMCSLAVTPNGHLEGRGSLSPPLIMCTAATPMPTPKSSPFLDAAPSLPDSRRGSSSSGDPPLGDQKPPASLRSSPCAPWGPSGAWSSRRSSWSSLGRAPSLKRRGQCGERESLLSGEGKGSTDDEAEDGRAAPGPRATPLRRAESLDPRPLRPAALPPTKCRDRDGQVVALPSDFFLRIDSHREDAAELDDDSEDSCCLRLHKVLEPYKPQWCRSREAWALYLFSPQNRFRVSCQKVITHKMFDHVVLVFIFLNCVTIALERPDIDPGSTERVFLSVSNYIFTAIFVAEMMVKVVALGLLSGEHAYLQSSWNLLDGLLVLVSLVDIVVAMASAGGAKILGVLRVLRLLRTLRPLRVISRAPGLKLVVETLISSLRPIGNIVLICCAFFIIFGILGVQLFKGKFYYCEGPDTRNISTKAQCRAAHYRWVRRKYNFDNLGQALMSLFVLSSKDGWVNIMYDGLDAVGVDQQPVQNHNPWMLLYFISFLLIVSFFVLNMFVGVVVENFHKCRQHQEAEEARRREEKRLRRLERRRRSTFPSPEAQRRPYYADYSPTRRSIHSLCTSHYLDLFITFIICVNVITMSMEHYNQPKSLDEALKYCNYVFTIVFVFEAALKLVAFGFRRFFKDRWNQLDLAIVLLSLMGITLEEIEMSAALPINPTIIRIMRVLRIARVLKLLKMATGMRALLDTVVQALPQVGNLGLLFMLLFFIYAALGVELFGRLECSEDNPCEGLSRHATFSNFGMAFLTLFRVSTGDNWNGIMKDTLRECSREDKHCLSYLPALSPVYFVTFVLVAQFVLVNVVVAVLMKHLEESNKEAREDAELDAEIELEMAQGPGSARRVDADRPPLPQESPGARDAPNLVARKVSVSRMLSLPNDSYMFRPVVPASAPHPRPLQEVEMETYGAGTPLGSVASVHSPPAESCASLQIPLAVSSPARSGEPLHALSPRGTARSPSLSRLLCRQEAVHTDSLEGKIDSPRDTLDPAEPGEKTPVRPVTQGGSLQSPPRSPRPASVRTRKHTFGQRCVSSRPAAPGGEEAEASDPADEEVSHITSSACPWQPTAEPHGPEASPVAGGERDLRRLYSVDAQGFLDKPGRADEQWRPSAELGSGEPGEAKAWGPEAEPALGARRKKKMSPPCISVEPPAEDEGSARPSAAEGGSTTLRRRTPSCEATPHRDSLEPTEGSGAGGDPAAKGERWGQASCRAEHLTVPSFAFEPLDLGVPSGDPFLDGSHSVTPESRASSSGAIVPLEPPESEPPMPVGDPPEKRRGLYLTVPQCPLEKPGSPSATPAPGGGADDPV

With `Fc1ccc(CN(CC(F)(F)F)C2CCN(CCCc3c[nH]c4ccc(Cn5cncn5)cc34)CC2)cc1` [TTA-I1, N-(4-fluorobenzyl)-1-{3-[5-(1H-1,2,4-triazol-1-ylmethyl)-1H-indol-3-yl]propyl}-N-(2,2,2-trifluoroethyl)piperidin-4-amine], the IC50 was found to be 3 nM.
